Assay results published in US20130217664A1, “NOVEL COMPOUNDS USEFUL FOR THE TREATMENT OF DEGENERATIVE AND INFLAMMATORY DISEASES” (priority 2012, published 2013).
Where two headings read alike, the source gives them in different places.

Tests used:
human TYK2 = biological target: T1, human TYK2 (Homo sapiens, UniProt P29597); test: TYK2 inhibition assay; assay type: biochemical; conditions: recombinant human TYK2 catalytic domain, polyGT substrate
T1 construct: catalytic domain (amino acids 871-1187; catalog number 08-147); purchased Carna Biosciences 08-147
T1 sequence (P29597 871-1187): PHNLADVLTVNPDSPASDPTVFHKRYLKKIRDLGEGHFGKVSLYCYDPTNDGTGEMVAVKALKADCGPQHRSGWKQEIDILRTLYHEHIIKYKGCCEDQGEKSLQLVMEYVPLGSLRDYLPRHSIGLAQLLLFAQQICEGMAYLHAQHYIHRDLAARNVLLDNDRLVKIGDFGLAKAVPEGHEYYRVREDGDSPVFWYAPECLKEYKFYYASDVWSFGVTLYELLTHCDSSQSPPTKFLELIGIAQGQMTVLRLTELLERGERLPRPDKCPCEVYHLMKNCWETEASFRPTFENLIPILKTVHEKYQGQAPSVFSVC
Outline: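 Radiometric kinase reaction run 90 min at 30 °C, stopped with phosphoric acid, washed and scintillation-counted.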

human JAK1 = biological target: T2, human JAK1 (Homo sapiens, UniProt P23458); test: JAK1 inhibition assay (polyGT substrate / Ulight-JAK1 peptide); assay type: biochemical; conditions: recombinant human JAK1 catalytic domain; polyGT or Ulight-JAK1 peptide assay
T2 construct: catalytic domain, amino acids 866-1154; catalog number PV4774; purchased Invitrogen PV4774
Outline: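 Signal scaled between vehicle and 10 μM staurosporine. Radiometric polyGT reactions ran 45 min at 30 °C, counted after phosphoric-acid stop. Ulight peptide reactions ran 60 min at room temperature, fluorescence read after adding Eu-PT66 detection mix with EDTA.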

[1] = system: pSTAT1(2)-luciferase reporter in HeLa cells triggered with human OSM; test: JAK-STAT signalling assay; assay type: cell-based; conditions: read-out: JAK-STAT IC50
Outline: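 Compound added 60 min before 33 ng/mL (final) human OSM; after overnight stimulation at 37 °C, luciferase signal from a transiently transfected pSTAT1(2) reporter in HeLa cells was read, with LacZ as internal control. EC50 derived from percent-inhibition dose-response curves.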

human JAK3 = biological target: T3, human JAK3 (Homo sapiens, UniProt P52333); test: JAK3 inhibition assay; assay type: biochemical; conditions: recombinant human JAK3 catalytic domain; polyGT substrate
T3 construct: catalytic domain (amino acids 781-1124; catalog number PV3855); purchased Invitrogen PV3855
Outline: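 Radiometric kinase assay: 0.5 ng JAK3 with 2.5 μg polyGT in Tris pH 7.5/MgCl2 buffer, 1 μM ATP plus 0.25 μCi 33P-γ-ATP, 1% DMSO, 45 min at 30 °C, stopped with phosphoric acid.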

[2] = Homo sapiens, HeLa, HeLa cells, pSTAT1(2)-luciferase reporter, human OSM 33 ng/mL
[3] = HeLa cells, pSTAT1(2)-luciferase reporter, human OSM 33 ng/mL

T2 sequence (P23458 866-1154): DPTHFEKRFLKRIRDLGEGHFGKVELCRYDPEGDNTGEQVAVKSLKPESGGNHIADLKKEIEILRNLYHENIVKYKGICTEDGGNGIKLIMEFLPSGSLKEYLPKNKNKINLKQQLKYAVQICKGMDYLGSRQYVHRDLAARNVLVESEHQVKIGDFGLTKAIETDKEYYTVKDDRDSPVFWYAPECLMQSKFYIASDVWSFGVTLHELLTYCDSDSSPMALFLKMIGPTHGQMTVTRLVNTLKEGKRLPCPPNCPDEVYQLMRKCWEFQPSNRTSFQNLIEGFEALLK
T3 sequence (P52333 781-1124): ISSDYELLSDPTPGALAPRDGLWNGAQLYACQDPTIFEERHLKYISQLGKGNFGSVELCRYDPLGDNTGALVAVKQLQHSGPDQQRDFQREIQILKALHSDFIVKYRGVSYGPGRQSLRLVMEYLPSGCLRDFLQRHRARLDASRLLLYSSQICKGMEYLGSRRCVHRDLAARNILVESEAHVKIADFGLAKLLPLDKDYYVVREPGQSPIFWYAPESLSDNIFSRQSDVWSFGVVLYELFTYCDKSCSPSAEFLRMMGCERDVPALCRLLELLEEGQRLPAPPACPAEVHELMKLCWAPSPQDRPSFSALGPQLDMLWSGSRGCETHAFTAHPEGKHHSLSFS

Compound	IC50 (human TYK2)	IC50 (human JAK1)	IC50 [1, 2]	IC50 (human JAK3)	IC50 ([1]; Homo sapiens, HeLa)	IC50 [1, 3]
CCc1cc(-c2cnn(CC#N)c2)ccc1N(C)c1cc2c(cn1)ncn2C [Compound 209, 2-(4-(3-ethyl-4-(methyl(1-methyl-1H-imidazo[4,5-c]pyridin-6-yl)amino)phenyl)-1H-pyrazol-1-yl)acetonitrile]	101 to 500 nM	0.01 to 100 nM	501 to 1000 nM	101 to 500 nM	–	–
CCc1cc(-c2cnc(NC)nc2)ccc1N(C)c1cc2c(cn1)ncn2C [Compound 211, N-(2-Ethyl-4-(2-(methylamino)pyrimidin-5-yl)phenyl)-N,1-dimethyl-1H-imidazo[4,5-d]pyridin-6-amine]	0.01 to 100 nM	0.01 to 100 nM	501 to 1000 nM	501 to 1000 nM	–	–
CCc1cc(-c2cnc(OC3COC3)nc2)ccc1N(C)c1cc2c(cn1)ncn2C [Compound 212, N-(2-Ethyl-4-(2-(oxetan-3-yloxy)pyrimidin-5-yl)phenyl)-N,1-dimethyl-1H-imidazo[4,5-c]pyridin-6-amine]	101 to 500 nM	0.01 to 100 nM	> 1000 nM	> 1000 nM	–	–
CCc1cc(C2=CCN(C(=O)NC3COC3)CC2)ccc1N(C)c1cc2c(cn1)ncn2C [Compound 215]	0.01 to 100 nM	0.01 to 100 nM	> 1000 nM	101 to 500 nM	–	–
CCc1cc(C2=CCN(C(=O)OCC#N)CC2)ccc1N(C)c1cc2c(cn1)ncn2C [Compound 216, Cyanomethyl 4-(3-ethyl-4-(methyl(1-methyl-1H-imidazo[4,5-c]pyridin-6-yl)amino)phenyl)-5,6-dihydropyridine-1(2H)-carboxylate]	0.01 to 100 nM	0.01 to 100 nM	–	101 to 500 nM	> 1000 nM	–
CCc1cc(-c2cnc(OCC#N)nc2)ccc1N(C)c1cc2c(cn1)ncn2C [Compound 217, 2-(5-(3-ethyl-4-(methyl(1-methyl-1H-imidazo[4,5-c]pyridin-6-yl)amino)phenyl)pyrimidin-2-yloxy)acetonitrile]	101 to 500 nM	0.01 to 100 nM	> 1000 nM	> 1000 nM	–	–
CCc1cc(-c2cncc(S(C)(=O)=O)c2)ccc1N(C)c1cc2c(cn1)ncn2C [Compound 218, N-(2-ethyl-4-(5-(methylsulfonyl)pyridin-3-yl)phenyl)-N,1-dimethyl-1H-imidazo[4,5-c]pyridin-6-amine]	501 to 1000 nM	0.01 to 100 nM	> 1000 nM	> 1000 nM	–	–
CCc1cc(-c2cnn(CCN3CCCC3)c2)ccc1N(C)c1cc2c(cn1)ncn2C [Compound 219, N-(2-ethyl-4-(1-(2-(pyrrolidin-1-yl)ethyl)-1H-pyrazol-4-yl)phenyl)-N,1-dimethyl-1H-imidazo[4,5-c]pyridin-6-amine]	0.01 to 100 nM	0.01 to 100 nM	1 to 500 nM	> 1000 nM	–	–
CCc1cc(-c2cnn(CC(=O)N(C)C)c2)ccc1N(C)c1cc2c(cn1)ncn2C [Compound 220, 2-(4-(3-ethyl-4-(methyl(1-methyl-1H-imidazo[4,5-c]pyridin-6-yl)amino)phenyl)-1H-pyrazol-1-yl)-N,N-dimethylacetamide]	0.01 to 100 nM	0.01 to 100 nM	501 to 1000 nM	101 to 500 nM	–	–
CCc1cc(-c2cnn(CC(=O)C(C)(C)C)c2)ccc1N(C)c1cc2c(cn1)ncn2C [Compound 221, 1-(4-(3-ethyl-4-(methyl(1-methyl-1H-imidazo[4,5-c]pyridin-6-yl)amino)phenyl)-1H-pyrazol-1-yl)-3,3-dimethylbutan-2-one]	101 to 500 nM	0.01 to 100 nM	> 1000 nM	> 1000 nM	–	–
CCc1cc(-c2cnn(CC(N)=O)c2)ccc1N(C)c1cc2c(cn1)ncn2C [Compound 222, 2-(4-(3-Ethyl-4-(methyl(1-methyl-1H-imidazo[4,5-c]pyridin-6-yl)amino)phenyl)-1H-pyrazol-1-yl)acetamide]	0.01 to 100 nM	0.01 to 100 nM	1 to 500 nM	101 to 500 nM	–	–
CCC(=O)N1CCC(c2ccc(N(C)c3cc4c(cn3)ncn4C)c(CC)c2)CC1 [Compound 223, 1-(4-(3-ethyl-4-(methyl(1-methyl-1H-imidazo[4,5-c]pyridin-6-yl)amino)phenyl)piperidin-1-yl)propan-1-one]	0.01 to 100 nM	0.01 to 100 nM	–	101 to 500 nM	–	1 to 500 nM
CCc1cc(C2CCN(C(=O)CC#N)CC2)ccc1N(C)c1cc2c(cn1)ncn2C [Compound 224, 3-(4-(3-ethyl-4-(methyl(1-methyl-1H-imidazo[4,5-c]pyridin-6-yl)amino)phenyl)piperidin-1-yl)-3-oxopropanenitrile]	0.01 to 100 nM	0.01 to 100 nM	–	101 to 500 nM	–	501 to 1000 nM
CCc1cc(C2CCN(C(=O)COC)CC2)ccc1N(C)c1cc2c(cn1)ncn2C [Compound 226, 1-(4-(3-ethyl-4-(methyl(1-methyl-1H-imidazo[4,5-c]pyridin-6-yl)amino)phenyl)piperidin-1-yl)-2-methoxyethanone]	0.01 to 100 nM	0.01 to 100 nM	–	101 to 500 nM	–	> 1000 nM
CCc1cc(C2=CCN(C(=O)C(O)C(F)(F)F)CC2)ccc1N(C)c1cc2c(cn1)ncn2C (stereo not shown) [Compound 230, 1-(4-(3-ethyl-4-(methyl(1-methyl-1H-imidazo[4,5-c]pyridin-6-yl)amino)phenyl)-5,6-dihydropyridin-1(2H)-yl)-3,3,3-trifluoro-2-hydroxypropan-1-one]	0.01 to 100 nM	0.01 to 100 nM	1 to 500 nM	0.01 to 100 nM	–	–
CCc1cc(C2=CCN(C(=O)C(C)(C)O)CC2)ccc1N(C)c1cc2c(cn1)ncn2C [Compound 231, 1-(4-(3-ethyl-4-(methyl(1-methyl-1H-imidazo[4,5-c]pyridin-6-yl)amino)phenyl)-5,6-dihydropyridin-1(2H)-yl)-2-hydroxy-2-methylpropan-1-one]	0.01 to 100 nM	0.01 to 100 nM	1 to 500 nM	101 to 500 nM	–	–
CCc1cc(C2=CCN(S(=O)(=O)CC(F)(F)F)CC2)ccc1N(C)c1cc2c(cn1)ncn2C [Compound 232, N-(2-ethyl-4-(1-(2,2,2-trifluoroethylsulfonyl)-1,2,3,6-tetrahydropyridin-4-yl)phenyl)-N,1-dimethyl-1H-imidazo[4,5-c]pyridin-6-amine]	0.01 to 100 nM	0.01 to 100 nM	> 1000 nM	0.01 to 100 nM	–	–
CCc1cc(C2=CCN(C(=O)Nc3nncs3)CC2)ccc1N(C)c1cc2c(cn1)ncn2C [Compound 234, 4-(3-Ethyl-4-(methyl(1-methyl-1H-imidazo[4,5-c]pyridin-6-yl)amino)phenyl)-N-(1,3,4-thiadiazol-5-yl)-5,6-dihydropyridine-1(2H)-carboxamide]	0.01 to 100 nM	0.01 to 100 nM	–	0.01 to 100 nM	1 to 500 nM	–
CCc1cc(C2CCN(C(=O)C(C)O)CC2)ccc1N(C)c1cc2c(cn1)ncn2C (stereo not shown) [Compound 235, 1-(4-(3-ethyl-4-(methyl(1-methyl-1H-imidazo[4,5-c]pyridin-6-yl)amino)phenyl)piperidin-1-yl)-2-hydroxypropan-1-one]	0.01 to 100 nM	0.01 to 100 nM	–	101 to 500 nM	–	501 to 1000 nM
CCc1cc(-c2cnn(Cc3cccc(OC)c3)c2)ccc1N(C)c1cc2c(cn1)ncn2C [Compound 236, N-(2-ethyl-4-(1-(3-methoxybenzyl)-1H-pyrazol-4-yl)phenyl)-N,1-dimethyl-1H-imidazo[4,5-c]pyridin-6-amine]	0.01 to 100 nM	0.01 to 100 nM	1 to 500 nM	0.01 to 100 nM	–	–
CCc1cc(-c2cnn(Cc3ccc(C)cc3)c2)ccc1N(C)c1cc2c(cn1)ncn2C [Compound 237, N-(2-ethyl-4-(1-(4-methylbenzyl)-1H-pyrazol-4-yl)phenyl)-N,1-dimethyl-1H-imidazo[4,5-c]pyridin-6-amine]	0.01 to 100 nM	0.01 to 100 nM	1 to 500 nM	101 to 500 nM	–	–
CCc1cc(-c2cnn(Cc3ccc(F)cc3)c2)ccc1N(C)c1cc2c(cn1)ncn2C [Compound 238, N-(2-ethyl-4-(1-(4-fluorobenzyl)-1H-pyrazol-4-yl)phenyl)-N,1-dimethyl-1H-imidazo[4,5-c]pyridin-6-amine]	0.01 to 100 nM	0.01 to 100 nM	1 to 500 nM	101 to 500 nM	–	–
